Test results as given in patent US20230145835A1, “Modulators of Alpha-4-beta-7 Integrin and MAdCAM” (48HD Biopharma Inc., priority 2021, published 2023).
pIC50: −log10 of the molar value. Numbered stars: 1 amine (or outer) side, 2 acyl side, 3 side chain; on linkers, the order of the positions; unused ones are H or OH. Bridge positions count the residues as written; N and C are the ends. Square brackets hold non-standard residues; d marks the D form. Peptide text beside a SMILES is read from it. X12 = NC(=O)CC[C@@H](N[*:1])C(=O)C[C@@H](Cc1cnc[nH]1)C(=O)[*:2]; X13 = O=C(/C=N/OCCCCCCOC1=CC(C[*:3])=CC(C[*:2])C1)[*:1]; X8 = O=C(/C=N/O/C=C/CCCCOc1cc(C[*:2])cc(C[*:3])c1)[*:1]; X3 = O=C(/C=N/OCCCCCCOc1cc(C[*:2])cc(C[*:3])c1)[*:1]; X1 = O=C(C=NOCCCCCCOc1cc(C[*:2])cc(C[*:3])c1)[*:1]; X5 = O=C(CCCCCCOc1cc(C[*:2])cc(C[*:3])c1)[*:1]; Nle = CCCC[C@H](N)C(=O)O

Target: T1, rh-integrin α4β7/LPAM-1 (Homo sapiens, UniProt P13612+P26010)
T1 sequence (P13612 34-977 limits assumed): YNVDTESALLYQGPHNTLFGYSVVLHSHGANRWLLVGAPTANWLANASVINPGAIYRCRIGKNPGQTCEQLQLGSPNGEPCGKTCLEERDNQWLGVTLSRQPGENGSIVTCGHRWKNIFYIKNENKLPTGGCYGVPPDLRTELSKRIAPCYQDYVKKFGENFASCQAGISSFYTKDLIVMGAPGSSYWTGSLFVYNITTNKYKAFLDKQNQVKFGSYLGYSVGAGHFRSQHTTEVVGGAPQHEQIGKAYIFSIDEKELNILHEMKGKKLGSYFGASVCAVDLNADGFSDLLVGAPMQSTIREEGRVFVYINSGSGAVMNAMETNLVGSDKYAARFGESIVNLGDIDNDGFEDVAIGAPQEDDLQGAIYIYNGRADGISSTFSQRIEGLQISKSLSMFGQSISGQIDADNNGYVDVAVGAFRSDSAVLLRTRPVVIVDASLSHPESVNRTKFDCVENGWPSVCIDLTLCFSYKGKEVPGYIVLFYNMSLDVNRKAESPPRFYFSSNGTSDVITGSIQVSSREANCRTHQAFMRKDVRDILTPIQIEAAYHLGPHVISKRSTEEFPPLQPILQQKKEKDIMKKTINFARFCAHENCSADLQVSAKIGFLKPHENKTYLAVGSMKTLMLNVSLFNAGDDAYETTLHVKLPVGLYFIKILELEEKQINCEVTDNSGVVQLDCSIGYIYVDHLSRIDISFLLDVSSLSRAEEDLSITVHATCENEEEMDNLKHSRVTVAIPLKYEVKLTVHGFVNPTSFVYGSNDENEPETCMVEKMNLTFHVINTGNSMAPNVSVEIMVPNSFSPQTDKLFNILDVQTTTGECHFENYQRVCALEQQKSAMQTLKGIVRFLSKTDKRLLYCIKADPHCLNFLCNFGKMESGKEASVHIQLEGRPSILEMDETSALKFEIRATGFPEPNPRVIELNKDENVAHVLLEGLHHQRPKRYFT
T1 sequence (P26010 20-723 limits assumed): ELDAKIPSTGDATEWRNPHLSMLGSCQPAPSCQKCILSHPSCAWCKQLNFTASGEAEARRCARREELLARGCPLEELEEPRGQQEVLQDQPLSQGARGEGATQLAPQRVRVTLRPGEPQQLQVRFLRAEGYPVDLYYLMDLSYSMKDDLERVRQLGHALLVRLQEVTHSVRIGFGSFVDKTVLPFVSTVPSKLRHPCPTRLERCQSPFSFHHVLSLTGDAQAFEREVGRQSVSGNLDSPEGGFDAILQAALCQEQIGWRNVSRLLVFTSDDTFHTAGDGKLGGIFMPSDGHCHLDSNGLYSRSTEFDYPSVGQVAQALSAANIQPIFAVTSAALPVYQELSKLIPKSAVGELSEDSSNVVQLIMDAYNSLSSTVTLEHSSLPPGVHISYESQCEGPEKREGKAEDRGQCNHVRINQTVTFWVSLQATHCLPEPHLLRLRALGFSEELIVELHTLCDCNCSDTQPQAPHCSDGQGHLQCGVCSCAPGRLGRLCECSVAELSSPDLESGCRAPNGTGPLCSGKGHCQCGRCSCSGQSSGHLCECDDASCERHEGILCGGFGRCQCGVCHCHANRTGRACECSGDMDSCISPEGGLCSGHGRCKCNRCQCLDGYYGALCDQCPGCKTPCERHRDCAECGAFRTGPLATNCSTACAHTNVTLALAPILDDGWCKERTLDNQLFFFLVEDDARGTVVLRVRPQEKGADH
Assay: α4β7-MadCAM Competition ELISA (Example 4)
Format: binding
Conditions: IC50, competition ELISA, 4 μg/mL α4β7 coated, MAdCAM and peptide mixture, 28° C.
Experimental: After washing with wash buffer, 200 μL assay buffer was added to each well and incubated for one hour at 28° C. After another wash with wash buffer, 100 μL of a MAdCAM and peptide mixture in assay buffer was added to each well and incubated for one hour at 28° C., followed by washing with wash buffer.

Compound | pIC50
C[C@@H](O)[C@@H]1NC(=O)[C@H](CCCCN)NC(=O)[C@H](CO)NC(=O)[C@H](CCC(N)=O)NC(=O)[C@H](Cc2c[nH]c3ccccc23)NC(=O)[C@@H]2CCCN2C(=O)[C@@H]2CSCc3cc(cc(c3)OCCCCCCON=CC(=O)N[C@@H](CC(=O)O)C(=O)N2)CSC[C@@H](C(=O)O)NC1=O [SEQ ID NO: 95] (DCPWQSKTC-OH; linker N-2-9 via X1) | 4.75

Same assay, conditions: Table 3 Representative compounds; inhibition of MAdCAM binding to coated α4β7; read-out: IC50

Compound | pIC50
CCCC[C@@H]1NC(=O)[C@@H]2CCCN2C(=O)[C@@H]2CSCc3cc(cc(c3)OCCCCCCC(=O)NCC(=O)N[C@@H](CCCNC(=N)N)C(=O)N2)CSC[C@@H](C(N)=O)NC(=O)[C@H](CCC(=O)O)NC(=O)[C@H](CCC(N)=O)NC(=O)[C@H](Cc2c[nH]c3ccccc23)NC(=O)[C@H]([C@@H](C)CC)NC(=O)[C@H](CC(=O)O)NC1=O [compound 4] (GRCP[Nle]DIWQEC-NH2; linker N-3-11 via X5) | 7.12
C[C@@H](O)[C@@H]1NC(=O)[C@H](CC(=O)O)NC(=O)[C@@H]2CCCN2C(=O)[C@H](Cc2ccc(O)cc2)NC(=O)[C@@H]2CSCc3cc(cc(c3)OCCCC/C=C/O/N=C/C(=O)N[C@@H](CC(N)=O)C(=O)N2)CSC[C@@H](C(N)=O)NC(=O)[C@H](Cc2cnc[nH]2)NC(=O)[C@H](Cc2ccc(O)cc2)NC1=O [compound 89, TSL6- SNCYPDTYHC] (NCYPDTYHC-NH2; linker N-2-9 via X8) | 4.10
CC[C@H](C)[C@@H]1NC(=O)[C@H](CC(=O)O)NC(=O)[C@H](CCSC)NC(=O)[C@@H]2CCCN2C(=O)[C@@H](NC(=O)[C@H](CCC(N)=O)NC(=O)[C@H](CO)NC(C)=O)CSSC[C@@H](C(N)=O)NC(=O)[C@H]([C@@H](C)O)NC(=O)[C@@H]2CCCN2C1=O [compound 47] (Ac-SQCPMDIPTC-NH2; disulfide 3-10) | 5.77
CC(C)C[C@@H]1NC(=O)[C@@H]2CCCN2C(=O)[C@@H]2CSCc3cc(cc(c3)OCCCCCCO/N=C/C(=O)N[C@@H](CCCCN)C(=O)N2)CSC[C@@H](C(N)=O)NC(=O)[C@H](CCC(=O)O)NC(=O)[C@H]([C@@H](C)O)NC(=O)[C@@H]2CCCN2C(=O)[C@H]([C@@H](C)O)NC(=O)[C@H](CC(=O)O)NC1=O [compound 34, TSL6- SKCPLDTPTEC] (KCPLDTPTEC-NH2; linker N-2-10 via X3) | 6.13
CCCC[C@@H]1NC(=O)[C@@H]2CCCN2C(=O)[C@@H]2CSCc3cc(cc(c3)OCCCCCCO/N=C/C(=O)N[C@@H](CCCNC(=N)N)C(=O)N2)CSC[C@@H](C(N)=O)NC(=O)[C@H](CCC(=O)O)NC(=O)[C@H](C)NC(=O)[C@H](C)NC(=O)[C@H]([C@@H](C)CC)NC(=O)[C@H](CC(=O)O)NC1=O [compound 12] (RCP[Nle]DIAAEC-NH2; linker N-2-10 via X3) | 6.69
CC(C)C[C@@H]1NC(=O)[C@H](CO)NC(=O)[C@H](CCCNC(=N)N)NC(=O)[C@@H]2CSCC(=O)N[C@@H](CCCNC(=N)N)C(=O)N[C@@H](CSSC[C@@H](C(=O)N[C@@H](Cc3c[nH]c4ccccc34)C(=O)N[C@@H](CCC(N)=O)C(N)=O)NC(=O)[C@H](C(C)C)NC(=O)[C@@H](CC(=O)O)NC1=O)C(=O)N[C@@H](CO)C(=O)N[C@@H](CC(=O)O)C(=O)N[C@@H]([C@@H](C)O)C(=O)N[C@@H](CC(C)C)C(=O)N2 (racemic) [compound 87] | 4.15
CC[C@H](C)[C@@H]1NC(=O)[C@H](CC(=O)O)NC(=O)[C@H](CCSC)NC(=O)[C@@H]2CCCN2C(=O)[C@@H](NC(=O)[C@H](CCCNC(=N)N)NC(=O)[C@H](CO)NC(C)=O)CSSC[C@@H](C(N)=O)NC(=O)[C@H](CCC(=O)O)NC(=O)CNC(=O)[C@H](C)NC1=O [compound 36] (Ac-SRCPMDIAGEC-NH2; disulfide 3-11) | 6.03
CC(C)C[C@@H]1NC(=O)[C@H]([C@@H](C)O)NC(=O)[C@H](CC(=O)O)NC(=O)[C@H](CO)NC(=O)[C@H](CCCNC(=N)N)NC(=O)[C@@H](N)CSSC[C@@H](C(N)=O)NC1=O [compound 8] (H-CRSDTLC-NH2; disulfide 1-7) | 6.73
CCCC[C@@H]1NC(=O)[C@@H]2CCCN2C(=O)[C@@H]2CSCc3cc(cc(c3)OCCCCCCO/N=C/C(=O)N[C@@H](CCCNC(=N)N)C(=O)N2)CSC[C@@H](C(N)=O)NC(=O)[C@H](CCC(=O)O)NC(=O)[C@H](Cc2ccc(O)cc2)NC(=O)[C@H](Cc2c[nH]c3ccccc23)NC(=O)[C@H](C(C)C)NC(=O)[C@H](CC(=O)O)NC1=O [compound 6] (RCP[Nle]DVWYEC-NH2; linker N-2-10 via X3) | 6.89
C[C@@H]1NC(=O)/C=N/OCCCCCCOC2=CC3=CC(CSC[C@H](NC1=O)C(=O)N[C@@H](C)C(=O)N[C@@H](Cc1c[nH]c4ccccc14)C(=O)N[C@@H](Cc1cnc[nH]1)C(=O)N[C@H](CCC(N)=O)C(=O)C[C@@H](Cc1cnc[nH]1)C(=O)N[C@@H](C)C(=O)N[C@H](C(N)=O)CSC3)C2 [compound 57, TSL6- SACAWHQHAC] (ACAWH[X12]AC-NH2; linker N-2-8 via X13) | 5.41
CC[C@H](C)[C@@H]1NC(=O)/C=N/OCCCCCCOc2cc3cc(c2)CSC[C@H](NC1=O)C(=O)N[C@@H](Cc1ccc(O)cc1)C(=O)N1CCC[C@H]1C(=O)N[C@@H](CC(=O)O)C(=O)N[C@@H]([C@@H](C)O)C(=O)N[C@@H](Cc1ccc(O)cc1)C(=O)N[C@@H](Cc1cnc[nH]1)C(=O)N[C@H](C(N)=O)CSC3 [compound 91, TSL6- SICYPDTYHC] (ICYPDTYHC-NH2; linker N-2-9 via X3) | 4.03
CC(C)C[C@@H]1NC(=O)/C=N/OCCCCCCOc2cc3cc(c2)CSC[C@H](NC1=O)C(=O)N[C@@H](Cc1ccc(O)cc1)C(=O)N1CCC[C@H]1C(=O)N[C@@H](CC(=O)O)C(=O)N[C@@H]([C@@H](C)O)C(=O)N[C@@H](Cc1ccc(O)cc1)C(=O)N[C@@H](Cc1cnc[nH]1)C(=O)N[C@H](C(N)=O)CSC3 [compound 73, TSL6- SLCYPDTYHC] (LCYPDTYHC-NH2; linker N-2-9 via X3) | 4.51
CC(C)C[C@@H]1NC(=O)[C@@H]2CCCN2C(=O)[C@@H]2CSCc3cc(cc(c3)OCCCCCCO/N=C/C(=O)N[C@@H](CCCCN)C(=O)N2)CSC[C@@H](C(N)=O)NC(=O)[C@H](CCC(=O)O)NC(=O)[C@H](Cc2ccc(O)cc2)NC(=O)[C@@H]2CCCN2C(=O)[C@H](C(C)C)NC(=O)[C@H](CC(=O)O)NC1=O [compound 10] (KCPLDVPYEC-NH2; linker N-2-10 via X3) | 6.73

Same assay, conditions: competition ELISA, 4 μg/mL α4β7 coated, MAdCAM and peptide mixture, 28° C.; read-out: IC50

Compound | pIC50
C[C@@H](O)[C@@H]1NC(=O)[C@H](CC(=O)O)NC(=O)[C@@H]2CCCN2C(=O)[C@H](Cc2ccc(O)cc2)NC(=O)[C@@H]2CSCc3cc(cc(c3)OCCCCCCON=CC(=O)N[C@@H](CC(N)=O)C(=O)N2)CSC[C@@H](C(=O)O)NC(=O)[C@H](Cc2c[nH]cn2)NC(=O)[C@H](Cc2ccc(O)cc2)NC1=O [SEQ ID NO: 86] (NCYPDTYHC-OH; linker N-2-9 via X1) | 4.10
C[C@@H]1NC(=O)C=NOCCCCCCOc2cc3cc(c2)CSC[C@H](NC1=O)C(=O)N[C@@H](Cc1ccc(O)cc1)C(=O)N1CCC[C@H]1C(=O)N[C@@H](CC(=O)O)C(=O)N[C@@H]([C@@H](C)O)C(=O)N[C@@H](Cc1ccc(O)cc1)C(=O)N[C@@H](Cc1c[nH]cn1)C(=O)N[C@H](C(=O)O)CSC3 [SEQ ID NO: 39] (ACYPDTYHC-OH; linker N-2-9 via X1) | 3.95
CCCC[C@@H]1NC(=O)[C@@H]2CCCN2C(=O)[C@@H]2CSCc3cc(cc(c3)OCCCCCCON=CC(=O)N[C@@H](CCCNC(=N)N)C(=O)N2)CSC[C@@H](C(=O)O)NC(=O)[C@H](CCC(=O)O)NC(=O)CNC(=O)[C@H](C)NC(=O)[C@H](C(C)C)NC(=O)[C@H](CC(=O)O)NC1=O [SEQ ID NO: 138] (RCP[Nle]DVAGEC-OH; linker N-2-10 via X1) | 6.58
